Counter-ions that a name gives are not always drawn.
Experiments:
muscarinic receptors [1] = experiment: Radio ligand binding, displacement of muscarinic agonist 3H-Oxotremorine-M (3H-OXO-M), rat cerebral cortex membranes; set-up: species or system Hooded Lister rats; details: 2 nM 3H-OXO-M, 2 mM magnesium chloride, tris pH 7.7, 37° C., 30 min
muscarinic receptors [2] = experiment: Radio ligand binding, displacement of muscarinic antagonist 3H-Quinuclidinyl Benzilate (3H-QNB), rat cerebral cortex membranes; set-up: species or system Hooded Lister rats; details: 0.27 nM 3H-QNB, tris pH 7.7, 37° C., 30 min

Row | Structure (SMILES) | IC50 (muscarinic receptors [1]) | IC50 (muscarinic receptors [2])
1 | Cc1ccn(C2CN3CCC2CC3)n1 (racemic) [E1, (±) 3-(3-Methylpyrazol-1-yl)-1-azabicyclo[2.2.2]octane oxalate salt] | 0.369 µM | 5 µM
2 | c1cnn(C2CN3CCC2CC3)c1 (racemic) [E2, (±) 3-(Pyrazol-1-yl)-1-azabicyclo[2.2.2]octane dihydrochloride salt] | 1.25 µM | 35 µM
3 | Cc1ncn(C2CN3CCC2CC3)n1 (racemic) [E6, (±) 3-(3-Methyl-1,2,4-triazol-1-yl)-1-azabicyclo[2.2.2] octane dihydrochloride salt] | 0.0675 µM | 5.6 µM
4 | c1ncn(C2CN3CCC2CC3)n1 (racemic) [E7, (±) 3-(1,2,4-Triazol-1-yl)-1-azabicyclo[2.2.2]octane dihydrochloride salt] | 0.475 µM | 44 µM
5 | Cc1nnn(C2CN3CCC2CC3)n1 (racemic) [E10, (±) 3-(5-Methyltetrazol-2-yl)-1-azabicyclo[2.2.2]octane hydrochloride salt] | 0.03 µM | 2.8 µM
6 | Nc1nnn(C2CN3CCC2CC3)n1 (racemic) [E11, (±) 3-(5-Aminotetrazol-2-yl)-1-azabicyclo[2.2.2]octane] | 0.038 µM | 6.5 µM
7 | Cc1cnn(C2CN3CCC2CC3)n1 (racemic) [E12, (±) 3-(4-Methyl-1,2,3-triazol-2-yl)-1-azabicyclo-[2.2.2]octane hydrochloride] | 0.26 µM | 2.1 µM
8 | c1nnn(C2CN3CCC2CC3)n1 (racemic) [E15, (±) 3-(Tetrazol-2-yl)-1-azabicyclo[2.2.2]octane hydrochloride salt] | 0.242 µM | 28.1 µM
9 | c1nnnn1C1CN2CCC1CC2 (racemic) [E16, (±) 3-(Tetrazol-1-yl)-1-azabicyclo[2.2.2]octane hydrochloride salt] | 2.75 µM | 110 µM
10 | c1ncn(C23CCCN(CC2)C3)n1 (racemic) [E27, (±) 5-(1,2,4-Triazol-1-yl)-1-azabicyclo[3.2.1]octane dihydrochloride salt] | 0.012 µM | 3.2 µM
11 | Cc1ncn(C23CCCN(CC2)C3)n1 (racemic) [E28, (±) 5-(3-Methyl-1,2,4-triazol-1-yl)-1-azabicyclo-[3.2.1]octane dihydrochloride salt] | 0.017 µM | 2.6 µM
12 | c1nnnn1C12CCCN(CC1)C2 (racemic) [E30, (±) 5-(tetrazol-1-yl)-1-azabicyclo[3.2.1]octane] | 1.4 µM | –
13 | Cc1nnn(C23CCCN(CC2)C3)n1 (racemic) [E31, (±) 5-(5-Methyltetrazol-2-yl)-1-azabicyclo[3.2.1]octane] | 0.0115 µM | 2.9 µM
14 | Nc1nnn(C23CCCN(CC2)C3)n1 (racemic) [E33, (±) 5-(5-Aminotetrazol-2-yl)-1-azabicyclo[3.2.1]octane] | 0.0075 µM | 6.2 µM
15 | Nc1nnnn1C12CCCN(CC1)C2 (racemic) [E34, (±) 5-(5-aminotetrazol-1-yl)-1-azabicyclo[3.2.1]octane] | 1.4 µM | –
16 | Nc1ncn(C23CCCN(CC2)C3)n1 (racemic) [E36, (±) 5-(3-Amino-1,2,4-triazol-1-yl)-1-azabicyclo[3.2.1]octane] | 0.0195 µM | 6.75 µM
17 | Nc1ncnn1C12CCCN(CC1)C2 (racemic) [E37, (±) 5-(5-amino-1,2,4-triazol-1-yl)-1-azabicyclo[3.2.1]octane] | 0.13 µM | 58 µM
18 | Nc1ncn(C2CN3CCC2CC3)n1 (racemic) [E38, (±) 3-(3-Amino-1,2,4-triazol-1-yl)-1-azabicyclo-[2.2.2]octane] | 0.18 µM | 14.5 µM
19 | Nc1ncnn1C1CN2CCC1CC2 (racemic) [E39, (±) 3-(5-amino-1,2,4-triazol-1-yl)-1-azabicyclo[2.2.2]octane dihydrochloride salt] | 14.5 µM | –
20 | Brc1nnn(C2CN3CCC2CC3)n1 (racemic) [E40, (±) 3-[5-Bromotetrazol-2-yl]-1-azabicyclo[2.2.2]octane oxalate salt] | 0.0197 µM | 0.488 µM
21 | Clc1nnn(C2CN3CCC2CC3)n1 (racemic) [E44, (±) 3-(5-Chlorotetrazol-2-yl)-1-azabicyclo[2.2.2]octane oxalate salt] | 0.0318 µM | 0.725 µM
22 | N#Cc1nnn(C2CN3CCC2CC3)n1 (racemic) [E46, (±) 3-(5-Cyanotetrazol-2-yl)-1-azabicyclo[2.2.2]octane oxalate salt] | 1.4 µM | 7.75 µM

Row | Structure (SMILES) | IC50 (muscarinic receptors [1]) | IC50 (muscarinic receptors [2])
23 | Brc1ncn(C2CN3CCC2CC3)n1 (racemic) [E47, (±) 3-(3-Bromo-1,2,4-triazol-1-yl)-1-azabicyclo[2.2.2]-octane oxalate salt] | 0.1 µM | 3.3 µM
24 | Clc1ncn(C2CN3CCC2CC3)n1 (racemic) [E48, (±) 3-(3-Chloro-1,2,4-triazol-1-yl)-1-azabicyclo[2.2.2] octane oxalate salt] | 0.195 µM | 9 µM
25 | Clc1nnn(C23CCCN(CC2)C3)n1 (racemic) [E49, (±) 5-(5-Chlorotetrazol-2-yl)-1-azabicyclo[3.2.1]octane oxalate salt] | 0.0032 µM | 0.5 µM
26 | Brc1nnn(C23CCCN(CC2)C3)n1 (racemic) [E50, (±) 5-(5-Bromotetrazol-2-yl)-1-azabicyclo[3.2.1]octane] | 0.0065 µM | 0.41 µM
27 | Cc1ncn([C@@H]2CN3CC[C@@H]2C3)n1 (relative stereo) [E8, (±) exo-3-(3-Methyl-1,2,4-triazol-1-yl)-1-azabicyclo-[2.2.1]heptane dihydrochloride salt] | 0.022 µM | 6.3 µM
28 | c1ncn([C@@H]2CN3CC[C@@H]2C3)n1 (relative stereo) [E9, (±) exo-3-(1,2,4-Triazol-1-yl)-1-azabicyclo[2.2.1]heptane dihydrochloride salt] | 0.048 µM | 43 µM
29 | Nc1nnn([C@H]2C[C@@H]3CCN(C3)C2)n1 (relative stereo) [E17, (±) exo-3-(5-Aminotetrazol-2-yl)-1-azabicyclo[3.2.1] octane hydrochloride] | 0.17 µM | 2.7 µM
30 | Nc1nnn([C@@H]2CN3CC[C@@H]2C3)n1 (relative stereo) [E18, (±) exo-3-(5-Aminotetrazol-2-yl)-1-azabicyclo[2.2.1] heptane] | 0.00262 µM | 4.3 µM
31 | c1nnn([C@@H]2CN3CC[C@@H]2C3)n1 (relative stereo) [E19, (±) exo-3-(Tetrazol-2-yl)-1-azabicyclo[2.2.1]heptane hydrochloride salt] | 0.03 µM | 22.3 µM
32 | Cc1nnn([C@@H]2CN3CC[C@@H]2C3)n1 (relative stereo) [E20, (±) exo-3-(5-Methyltetrazol-2-yl)-1-azabicyclo[2.2.1] heptane hydrochloride salt] | 0.0045 µM | 3 µM
33 | Cc1nnnn1[C@@H]1CN2CC[C@@H]1C2 (relative stereo) [E21, (±) exo-3-(5-Methyltetrazol-1-yl)-1-azabicyclo[2.2.1] heptane hydrochloride salt] | 6.6 µM | 310 µM
34 | c1nnn([C@H]2C[C@@H]3CCN(C3)C2)n1 (relative stereo) [E22, (±) exo-3-(Tetrazol-2-yl)-1-azabicyclo[3.2.1]octane hydrochloride salt] | 0.153 µM | 55 µM
35 | CCc1nnn([C@@H]2CN3CC[C@@H]2C3)n1 (relative stereo) [E23, (±) exo-3-(5-Ethyltetrazol-2-yl)-1-azabicyclo[2.2.1] heptane hydrochloride salt] | 0.325 µM | 3.3 µM
36 | Cc1cnn([C@@H]2CN3CC[C@@H]2C3)n1 (relative stereo) [E25, (±) exo-3-(4-Methyl-1,2,3-triazol-2-yl)-1-azabicyclo-[2.2.1]heptane hydrochloride salt] | 0.18 µM | 22 µM
37 | Brc1nnn([C@@H]2CN3CC[C@@H]2C3)n1 (relative stereo) [E41, (±) exo-3-(5-Bromotetrazol-2-yl)-1-azabicyclo[2.2.1]heptane oxalate salt] | 0.0065 µM | 1.5 µM
38 | Clc1nnn([C@@H]2CN3CC[C@@H]2C3)n1 (relative stereo) [E42, (±) exo-3-(5-Chlorotetrazol-2-yl)-1-azabicyclo[2.2.1]heptane oxalate salt] | 0.0076 µM | 0.7 µM
39 | Ic1nnn([C@@H]2CN3CC[C@@H]2C3)n1 (relative stereo) [E43, (±) exo-3-(5-Iodotetrazol-2-yl)-1-azabicyclo[2.2.1]heptane oxalate salt] | 0.042 µM | 0.33 µM
40 | Brc1ncn([C@@H]2CN3CC[C@@H]2C3)n1 (relative stereo) [E54, (±) exo-3-(3-Bromo-1,2,4-triazol-1-yl)-1-azabicyclo-[2.2.1]heptane oxalate salt] | 0.032 µM | 4.4 µM
41 | Cc1ncn(C2=CN3CCC2CC3)n1 [E5, 3-(3-Methyl-1,2,4-triazol-1-yl)-1-azabicyclo[2.2.2]oct-2-ene dihydrochloride] | 0.651 µM | 30.3 µM
42 | c1nnn(C23CCCN(CC2)C3)n1 (centres unmarked) [E29, 5-(Tetrazol-2-yl)-1-azabicyclo[3.2.1]octane] | 0.022 µM | 12.8 µM
43 | c1ncn(C23CCN(CC2)C3)n1 [E51, 4-(1,2,4-Triazol-1-yl)-1-azabicyclo[2.2.1]heptane oxalate salt] | 0.0165 µM | 65.2 µM
